Results taken from PMC6255327, “Design of Antimicrobially Active Small Amphiphilic Peptide Dendrimers” (Molecules, 2009).
Where a name gives a salt, the structure may show the parent alone.

Tests used:
S. aureus ATCC 25923 = experiment: microbe, parasite or virus in culture; assay type: cell-based, Staphylococcus aureus; conditions: ATCC 25923, 24 h, pH 7.2; read-out: Minimal inhibitory concentration (MIC)
Procedure: (§1) Bacteria. Staphylococcus aureus ATCC 25923, Pseudomonas aeruginosa ATCC 27853, Escherichia coli ATCC 25922 and Staphylococcus aureus ATCC 43300 were cultivated on tryptone - soy agar (TSA; Oxoid). Klebsiella pneumoniaeATCC 13882, Bordetella bronchiseptica ATCC 4617, Acinetobacter baumannii ATCC 19606 were cultivated onto nutrient agar (Difco). Escherichia coli ATCC BAA-198 was cultivated on TSA with ceftazidime (10 µg/mL or 15.7 μM; Sigma). All strains were incubated during 24 hrs at 37 °C.
(§2) Medium. Mueller – Hinton Broth (Oxoid) was supplemented with cations: 12.5 mg Mg ^++/L and25 mg Ca^++/L. The pH of the medium after sterilization is between 7.2 and 7.4 [cation–adjusted Mueller – Hinton Broth” (CAMHB)].
(§3) Reference method. Broth microdilution susceptibility test was performed as described in […] reference method M7-A7 (2). A series of the twofold dendrimers dilutions in DMSO and twofold polymyxin B and penicillin G dilutions in CAMHB were diluted […] with CAMHB. Aliquots (95 µL) were dispensed into microdilution sterile plates (Mar-Four). Then, bacteria inoculum (5 µL) containing 5 × 10^4 CFU/mL were added. The final concentration of dendrimers ranged from 128 to 2 µg/mL [or 105 to 1.6 μM for an average molecular mass for 7 series (1213) and 61 to 0.9 μM for an average molecular mass for 10 series(2,103)], polymyxin B and penicillin G from 8 – 0.15 µg /mL (or 5.8 to 0.1 μM and 21.5 to 0.4 μM, respectively for polymyxin B and penicillin G), all in twofold dilution steps. The plates were incubated at 35 °C and read after 18 or 24 hours depending on bacterial strain. MICs (Minimal Inhibitory Concentration) was defined as the lowest drug concentration that reduced growth by 100%.

S. aureus ATCC 43300 = assay type: cell-based, Staphylococcus aureus; conditions: ATCC 43300, 24 h
Procedure: as §1, §2, §3

P. aeruginosa ATCC 27853 = assay type: cell-based, Pseudomonas aeruginosa; conditions: ATCC 27853, 24 h
Procedure: as §1, §2, §3

[1] = test system: B. bronchiseptica ATCC 4617; assay type: cell-based, Bordetella bronchiseptica; conditions: ATCC 4617, 24 h
Procedure: as §1, §2, §3

A. baumani ATCC 19606 = assay type: cell-based, Acinetobacter baumannii; conditions: ATCC 19606, 24 h
Procedure: as §1, §2, §3

K. pneumoniae ATCC 13882 = assay type: cell-based, Klebsiella pneumoniae; conditions: ATCC 13882, 24 h
Procedure: as §1, §2, §3

E. coli ATCC BAA-198 = assay type: cell-based, Escherichia coli; conditions: ATCC BAA-198, 24 h
Procedure: as §1, §2, §3

E.coli ATCC 25922 = assay type: cell-based, Escherichia coli; conditions: ATCC 25922, 24 h
Procedure: as §1, §2, §3

C. albicans ATCC 90028 = assay type: cell-based, Candida albicans; conditions: ATCC 90028, 48 h, pH 7
Procedure: (§4) Yeasts: Candida albicans ATCC 90028, Candida parapsilosis ATCC 22019 and Candida krusei ATCC 6258 were cultivated onto Sabouraud dextrose agar (Difco) during 24 hrs at 35 °C.
(§5) Medium: RPMI – 1640 (Sigma) supplemented with 0.2% (wt/vol) glucose, 0.3 g/L L-glutamine, 0.0053 g/L phenol red, buffered with morpholinopropanesulfonic acid (MOPS; Sigma) at a final concentration of 0.165 M and adjusted to pH 7.0 was prepared.
(§6) Reference Method: The broth microdilution susceptibility test was performed as described in Clinical and Laboratory Standards Institute (CLSI) reference method M27 – A2 (1). A series of the twofold dendrimers and amphotericin B dilutions in DMSO were diluted 1:49 with RPMI.

C. krusei ATCC 6258 = experiment: microbe, parasite or virus in culture; assay type: cell-based, Candida krusei; conditions: ATCC 6258, 48 h, pH 7; read-out: Minimal inhibitory concentration (MIC)
Procedure: as §4, §5, §6

[2] = test system: C. parapsilosis ATCC 22019; assay type: cell-based, Candida parapsilosis; conditions: ATCC 22019, 48 h, pH 7
Procedure: as §4, §5, §6

human red blood cells = experiment: Hemolysis assay; assay type: cell-based; conditions: at a concentration of 400 μM, 1% hematocrit in PBS pH 7.4, 30 min at 23 °C, absorbance at 540 nm
Procedure: Dendrimer induced hemolysis was observed as previously reported. Briefly, serum free human red blood cells obtained from the Institute of Hematology and Transfusion Medicine in Warsaw, were suspended in phosphate buffered saline (PBS, pH 7.4). Prepared suspension of 1% hematocrit was incubated with serial concentration of dendrimers for 30 min at 23 °C. After centrifugation (1,000 rpm, 5 min) the absorbance of supernatant was measured at 540 nm (Jasco 630, Japan). A value of 100% hemolysis was determined by incubation of erythrocytes with double-distilled water (30 min at 23^o). In a control experiment, cells were incubated in buffer without peptide and absorbance at 540 nm value was used as a blank.
A - absorbance of the samples incubated with dendrimers; Ab – absorbance of the blank samples; A100% - absorbance of the reference; Ac - absorbance of red blood cells in PBS, hematocrit 1%.

## NCCCC[C@H](NC(=O)OCc1ccccc1Cl)C(=O)NCCCN[C@@H](CCCN(CCCNC(=O)[C@H](CCCCN)NC(=O)OCc1ccccc1Cl)CCCNC(=O)[C@H](CCCCN)NC(=O)OCc1ccccc1Cl)C(=O)NCc1ccccc1 [Compound 7g, N,N,N’-tris[(N^α-2-chlorobenzyloxycarbonyl)-L-lysil-3-aminopropyl]-L-ornithine benzylamide penta-hydrochloride]
S. aureus ATCC 25923
  MIC: 10.9 µM
S. aureus ATCC 43300
  Minimal inhibitory concentration (MIC): 10.9 µM
P. aeruginosa ATCC 27853
  Minimal inhibitory concentration (MIC): 21.8 µM
[1]
  Minimal inhibitory concentration (MIC): 2.7 µM
A. baumani ATCC 19606
  Minimal inhibitory concentration (MIC): 5.4 µM
K. pneumoniae ATCC 13882
  Minimal inhibitory concentration (MIC): 87 µM
E. coli ATCC BAA-198
  Minimal inhibitory concentration (MIC): 10.9 µM
E.coli ATCC 25922
  Minimal inhibitory concentration (MIC): 21.8 µM
C. albicans ATCC 90028
  Minimal inhibitory concentration (MIC): 10.9 µM
C. krusei ATCC 6258
  MIC: 5.4 µM
[2]
  Minimal inhibitory concentration (MIC): 5.4 µM
Human red blood cells
  toxicity (hemolysis): 32%

## NCCCC[C@H](NC(=O)OCc1ccccc1Cl)C(=O)N[C@@H](Cc1ccccc1)C(=O)NCCCN(CCCNC(=O)[C@H](Cc1ccccc1)NC(=O)[C@H](CCCCN)NC(=O)OCc1ccccc1Cl)CCC[C@@H](CO)N(CCCNC(=O)[C@H](Cc1ccccc1)NC(=O)[C@H](CCCCN)NC(=O)OCc1ccccc1Cl)CCCNC(=O)[C@H](Cc1ccccc1)NC(=O)[C@H](CCCCN)NC(=O)OCc1ccccc1Cl [Compound 10c, N,N',N,N’-tetrakis[(N^α-2-chlorobenzyloxycarbonyl)-L-lysil-L-phenylalanyl-3-aminopropyl]-L-α,δ-diaminopentanol hexahydrochloride]
S. aureus ATCC 25923
  MIC: 27.2 µM
S. aureus ATCC 43300
  Minimal inhibitory concentration (MIC): 13.6 µM
P. aeruginosa ATCC 27853
  Minimal inhibitory concentration (MIC): 54 µM
[1]
  Minimal inhibitory concentration (MIC): 6.8 µM
A. baumani ATCC 19606
  Minimal inhibitory concentration (MIC): 27.3 µM
K. pneumoniae ATCC 13882
  Minimal inhibitory concentration (MIC): 54 µM
E. coli ATCC BAA-198
  Minimal inhibitory concentration (MIC): 13.6 µM
E.coli ATCC 25922
  Minimal inhibitory concentration (MIC): 27.3 µM
C. albicans ATCC 90028
  Minimal inhibitory concentration (MIC): 54 µM
C. krusei ATCC 6258
  MIC: 27.3 µM
[2]
  Minimal inhibitory concentration (MIC): 54 µM

## NCCCC[C@H](NC(=O)OCc1ccccc1Cl)C(=O)N[C@@H](Cc1ccccc1)C(=O)NCCCN(CCCC[C@@H](CO)N(CCCNC(=O)[C@H](Cc1ccccc1)NC(=O)[C@H](CCCCN)NC(=O)OCc1ccccc1Cl)CCCNC(=O)[C@H](Cc1ccccc1)NC(=O)[C@H](CCCCN)NC(=O)OCc1ccccc1Cl)CCCNC(=O)[C@H](Cc1ccccc1)NC(=O)[C@H](CCCCN)NC(=O)OCc1ccccc1Cl [Compound 10d, N,N',N,N’-tetrakis[(N^α-2-chlorobenzyloxycarbonyl)-L-lysil-L-phenylalanyl-3-aminopropyl]-L-α,ε-diaminohexanol hexahydrochloride]
S. aureus ATCC 25923
  MIC: 3.4 µM
S. aureus ATCC 43300
  Minimal inhibitory concentration (MIC): 1.7 µM
P. aeruginosa ATCC 27853
  Minimal inhibitory concentration (MIC): 14 µM
[1]
  Minimal inhibitory concentration (MIC): 1.7 µM
A. baumani ATCC 19606
  Minimal inhibitory concentration (MIC): 3.4 µM
K. pneumoniae ATCC 13882
  Minimal inhibitory concentration (MIC): >54 µM
E. coli ATCC BAA-198
  Minimal inhibitory concentration (MIC): 3.4 µM
E.coli ATCC 25922
  Minimal inhibitory concentration (MIC): 6.8 µM
C. albicans ATCC 90028
  Minimal inhibitory concentration (MIC): 6.8 µM
C. krusei ATCC 6258
  MIC: 3.4 µM
[2]
  Minimal inhibitory concentration (MIC): 3.4 µM
